# Assay results as given in EPA's CvTdb concentration-time database.
# How the values were obtained:
# Rat [1] = test: concentration in kidney after dosing; conditions: 1848 h; dosed: Perfluorooctane Sulfonate; 20 mg/kg; oral; Female; F344
# Rat [2] = test: concentration in liver after dosing; conditions: 864 h; dosed: Perfluorooctane Sulfonate; 20 mg/kg; oral; Female; F344
# Rat [3] = test: concentration in kidney after dosing; conditions: 3360 h; dosed: Perfluorooctane Sulfonate; 20 mg/kg; oral; Male; Harlan Sprague Dawley
# Rat [4] = test: concentration in kidney after dosing; conditions: 864 h; dosed: Perfluorooctane Sulfonate; 2 mg/kg; oral; Female; Harlan Sprague Dawley
# Rat [5] = test: concentration in liver after dosing; conditions: 1848 h; dosed: Perfluorooctane Sulfonate; 2 mg/kg; oral; Female; Harlan Sprague Dawley
# Rat [6] = test: concentration in liver after dosing; conditions: 864 h; dosed: Perfluorooctane Sulfonate; 2 mg/kg; oral; Female; Harlan Sprague Dawley
# Rat [7] = test: concentration in liver after dosing; conditions: 24 h; dosed: Perfluorooctane Sulfonate; 2 mg/kg; oral; Female; Harlan Sprague Dawley
# Rat [8] = test: concentration in plasma after dosing; conditions: dosed: Perfluorooctane Sulfonate, 2 mg/kg, iv, Female, Harlan Sprague-Dawley
# Rat [9] = test: concentration in liver after dosing; conditions: 24 h; dosed: Perfluorooctane Sulfonate; 20 mg/kg; oral; Female; F344
# Rat [10] = test: concentration in kidney after dosing; conditions: 1848 h; dosed: Perfluorooctane Sulfonate; 2 mg/kg; oral; Female; Harlan Sprague Dawley
# Rat [11] = test: concentration in plasma after dosing; conditions: 6 h; dosed: Gemfibrozil; 50 mg/kg; oral; Male; Sprague-Dawley
# Rat [12] = test: concentration in plasma after dosing; conditions: 0.25 h; dosed: Gemfibrozil; 50 mg/kg; oral; Male; Sprague-Dawley
# Rat [13] = test: concentration in plasma after dosing; conditions: 1 h; dosed: Perfluorohexanoic Acid; 80 mg/kg; oral; Male; Harlan Sprague Dawley
# Rat [14] = test: concentration in brain after dosing; conditions: 1 h; dosed: Perfluorohexanoic Acid; 80 mg/kg; oral; Male; Harlan Sprague Dawley
# Rat [15] = test: concentration in plasma after dosing; conditions: dosed: Perfluorohexanoic Acid, 40 mg/kg, oral, Male, Harlan Sprague Dawley
# rat [16] = test: concentration in blood after dosing; conditions: dosed: trichloroethylene
# Rat [17] = test: concentration in kidney after dosing; conditions: 12 h; dosed: Fluorotelomer alcohol 8+2; 24 mg/kg; oral; Male; Harlan Sprague Dawley
# Rat [18] = test: concentration in kidney after dosing; conditions: 3 h; dosed: Fluorotelomer alcohol 8+2; 80 mg/kg; oral; Female; Harlan Sprague Dawley
# Rat [19] = test: concentration in liver after dosing; conditions: 3 h; dosed: Fluorotelomer alcohol 8+2; 80 mg/kg; oral; Female; Harlan Sprague Dawley
# Rat [20] = test: concentration in plasma after dosing; conditions: dosed: Fluorotelomer alcohol 8+2, 12 mg/kg, oral, Male, Harlan Sprague Dawley
# Rat [21] = test: concentration in kidney after dosing; conditions: 6 h; dosed: Fluorotelomer alcohol 8+2; 24 mg/kg; oral; Male; Harlan Sprague Dawley
# Rat [22] = test: concentration in brain after dosing; conditions: 12 h; dosed: Fluorotelomer alcohol 8+2; 24 mg/kg; oral; Male; Harlan Sprague Dawley
# Rat [23] = test: concentration in liver after dosing; conditions: 3 h; dosed: Fluorotelomer alcohol 8+2; 80 mg/kg; oral; Female; Harlan Sprague Dawley; remark: listed apart in the source
# Rat [24] = test: concentration in brain after dosing; conditions: 12 h; dosed: Fluorotelomer alcohol 8+2; 80 mg/kg; oral; Female; Harlan Sprague Dawley
# Rat [25] = test: concentration in liver after dosing; conditions: 1 h; dosed: Fluorotelomer alcohol 8+2; 80 mg/kg; oral; Female; Harlan Sprague Dawley
# Rat [26] = test: concentration in kidney after dosing; conditions: 3 h; dosed: Fluorotelomer alcohol 8+2; 24 mg/kg; oral; Male; Harlan Sprague Dawley
# Rat [27] = test: concentration in liver after dosing; conditions: 1 h; dosed: Fluorotelomer alcohol 8+2; 80 mg/kg; oral; Female; Harlan Sprague Dawley; remark: listed apart in the source
# Rat [28] = test: concentration in plasma after dosing; conditions: 3 h; dosed: Fluorotelomer alcohol 8+2; 12 mg/kg; oral; Male; Harlan Sprague Dawley
# Rat [29] = test: concentration in brain after dosing; conditions: 0.5 h; dosed: 2-Methyltetrahydrofuran; 40 mg/kg; iv; Male; Harlan Sprague Dawley
# Rat [30] = test: concentration in brain after dosing; conditions: 1.5 h; dosed: 2-Methyltetrahydrofuran; 40 mg/kg; iv; Male; Harlan Sprague Dawley
# Rat [31] = test: concentration in plasma after dosing; conditions: 6 h; dosed: 2-Methyltetrahydrofuran; 40 mg/kg; iv; Male; Harlan Sprague Dawley
# Rat [32] = test: concentration in brain after dosing; conditions: 7 min; dosed: 2-Methyltetrahydrofuran; 40 mg/kg; iv; Male; Harlan Sprague Dawley
# Rat [33] = test: concentration in brain after dosing; conditions: 2 h; dosed: 2-Methyltetrahydrofuran; 40 mg/kg; iv; Female; Harlan Sprague Dawley
smiles,measurement,setting,value
O=S(=O)([O-])C(F)(F)C(F)(F)C(F)(F)C(F)(F)C(F)(F)C(F)(F)C(F)(F)C(F)(F)F [Perfluorooctane Sulfonate],concentration in kidney,Rat [1],22700 ng/g
same,concentration in liver,Rat [2],77100 ng/g
same,concentration in kidney,Rat [3],10400 ng/g
same,concentration in kidney,Rat [4],3420 ng/g
same,concentration in liver,Rat [5],5680 ng/g
same,concentration in liver,Rat [6],11100 ng/g
same,concentration in liver,Rat [7],30300 ng/g
same,concentration in plasma,Rat [8]; 5 min,5510 ng/mL
same,concentration in plasma,Rat [8]; 24 h,3580 ng/mL
same,concentration in plasma,Rat [8]; 1200 h,562 ng/mL
same,concentration in liver,Rat [9],160000 ng/g
same,concentration in kidney,Rat [10],2750 ng/g
Cc1ccc(C)c(OCCCC(C)(C)C(=O)O)c1 [Gemfibrozil],concentration in plasma,Rat [11],2930 ng/mL
same,concentration in plasma,Rat [12],14400 ng/mL
O=C(O)C(F)(F)C(F)(F)C(F)(F)C(F)(F)C(F)(F)F [Perfluorohexanoic Acid],concentration in plasma,Rat [13],146000 ng/mL
same,concentration in brain,Rat [14],2830 ng/g
same,concentration in plasma,Rat [15]; 0.5 h,65500 ng/mL
same,concentration in plasma,Rat [15]; 9 h,4960 ng/mL
ClC=C(Cl)Cl [trichloroethylene],concentration in blood,"rat [16]; 110 s, 50 ppm, inhalation, duration: 2 hr, male, Sprague Dawley",206 ng/mL
same,concentration in blood,"rat [16]; 125 s, 7.6 mg/kg, oral, female, F344",1770 ng/mL
same,concentration in blood,"rat [16]; 143 s, 18 mg/kg, oral, male, Wistar",11100 ng/mL
same,concentration in blood,"rat [16]; 219 s, 50 ppm, inhalation, duration: 2 hr, male, Sprague Dawley",267 ng/mL
same,concentration in blood,"rat [16]; 266 s, 18 mg/kg, oral, male, Wistar",13600 ng/mL
same,concentration in blood,"rat [16]; 296 s, 7.6 mg/kg, oral, female, F344",2100 ng/mL
same,concentration in blood,"rat [16]; 350 s, 50 ppm, inhalation, duration: 2 hr, male, Sprague Dawley",337 ng/mL
same,concentration in blood,"rat [16]; 355 s, 18 mg/kg, oral, male, Wistar",13000 ng/mL
same,concentration in blood,"rat [16]; 0.1294 h, 600.4 ppm, inhalation, duration: 4 hr, female, Fischer-344",21900 ng/mL
same,concentration in blood,"rat [16]; 0.1299 h, 50 ppm, inhalation, duration: 2 hr, male, Sprague Dawley",443 ng/mL
same,concentration in blood,"rat [16]; 0.1447 h, 18 mg/kg, oral, male, Wistar",10200 ng/mL
same,concentration in blood,"rat [16]; 0.1617 h, 50 ppm, inhalation, duration: 2 hr, male, Sprague Dawley",402 ng/mL
same,concentration in blood,"rat [16]; 0.1716 h, 7.6 mg/kg, oral, female, F344",1400 ng/mL
same,concentration in blood,"rat [16]; 0.1747 h, 18 mg/kg, oral, male, Wistar",7730 ng/mL
same,concentration in blood,"rat [16]; 0.2208 h, 18 mg/kg, oral, male, Wistar",5020 ng/mL
same,concentration in blood,"rat [16]; 0.2483 h, 50 ppm, inhalation, duration: 2 hr, male, Sprague Dawley",454 ng/mL
same,concentration in blood,"rat [16]; 0.2739 h, 18 mg/kg, oral, male, Wistar",3760 ng/mL
same,concentration in blood,"rat [16]; 0.3228 h, 18 mg/kg, oral, male, Wistar",2790 ng/mL
same,concentration in blood,"rat [16]; 0.3289 h, 50 ppm, inhalation, duration: 2 hr, male, Sprague Dawley",492 ng/mL
same,concentration in blood,"rat [16]; 0.3309 h, 7.6 mg/kg, oral, female, F344",494 ng/mL
same,concentration in blood,"rat [16]; 0.3794 h, 18 mg/kg, oral, male, Wistar",2110 ng/mL
same,concentration in blood,"rat [16]; 0.4153 h, 50 ppm, inhalation, duration: 2 hr, male, Sprague Dawley",352 ng/mL
same,concentration in blood,"rat [16]; 0.4319 h, 18 mg/kg, oral, male, Wistar",1710 ng/mL
same,concentration in blood,"rat [16]; 0.4974 h, 50 ppm, inhalation, duration: 2 hr, male, Sprague Dawley",493 ng/mL
same,concentration in blood,"rat [16]; 0.5005 h, 7.6 mg/kg, oral, female, F344",296 ng/mL
same,concentration in blood,"rat [16]; 0.5081 h, 600.4 ppm, inhalation, duration: 4 hr, female, Fischer-344",15900 ng/mL
same,concentration in blood,"rat [16]; 0.5204 h, 18 mg/kg, oral, male, Wistar",1350 ng/mL
same,concentration in blood,"rat [16]; 0.7511 h, 50 ppm, inhalation, duration: 2 hr, male, Sprague Dawley",433 ng/mL
same,concentration in blood,"rat [16]; 0.7693 h, 18 mg/kg, oral, male, Wistar",957 ng/mL
same,concentration in blood,"rat [16]; 1.002 h, 50 ppm, inhalation, duration: 2 hr, male, Sprague Dawley",555 ng/mL
same,concentration in blood,"rat [16]; 1.014 h, 18 mg/kg, oral, male, Wistar",768 ng/mL
same,concentration in blood,"rat [16]; 1.016 h, 600.4 ppm, inhalation, duration: 4 hr, female, Fischer-344",9420 ng/mL
same,concentration in blood,"rat [16]; 1.252 h, 50 ppm, inhalation, duration: 2 hr, male, Sprague Dawley",512 ng/mL
same,concentration in blood,"rat [16]; 1.512 h, 18 mg/kg, oral, male, Wistar",503 ng/mL
same,concentration in blood,"rat [16]; 1.531 h, 600.4 ppm, inhalation, duration: 4 hr, female, Fischer-344",5750 ng/mL
same,concentration in blood,"rat [16]; 2.017 h, 18 mg/kg, oral, male, Wistar",333 ng/mL
same,concentration in blood,"rat [16]; 2.018 h, 600.4 ppm, inhalation, duration: 4 hr, female, Fischer-344",4750 ng/mL
same,concentration in blood,"rat [16]; 2.518 h, 18 mg/kg, oral, male, Wistar",321 ng/mL
same,concentration in blood,"rat [16]; 3.02 h, 18 mg/kg, oral, male, Wistar",214 ng/mL
same,concentration in blood,"rat [16]; 3.529 h, 18 mg/kg, oral, male, Wistar",59.6 ng/mL
same,concentration in blood,"rat [16]; 4.027 h, 18 mg/kg, oral, male, Wistar",47.7 ng/mL
O=C(O)CCC(F)(F)C(F)(F)C(F)(F)C(F)(F)C(F)(F)C(F)(F)C(F)(F)F [Fluorotelomer acid 7+3],concentration in kidney,Rat [17],573 ng/g
same,concentration in kidney,Rat [18],5620 ng/g
same,concentration in liver,Rat [19],11400 ng/g
same,concentration in plasma,Rat [20]; 1 h,334 ng/mL
same,concentration in plasma,Rat [20]; 24 h,377 ng/mL
same,concentration in kidney,Rat [21],822 ng/g
same,concentration in brain,Rat [22],129 ng/g
same,concentration in liver,Rat [23],10700 ng/g
same,concentration in brain,Rat [24],484 ng/g
same,concentration in liver,Rat [25],1620 ng/g
same,concentration in kidney,Rat [26],1320 ng/g
same,concentration in liver,Rat [27],1340 ng/g
same,concentration in plasma,Rat [28],726 ng/mL
CC1CCCO1 (configuration not stated) [2-Methyltetrahydrofuran],concentration in brain,Rat [29],15200 ng/mL
same,concentration in brain,Rat [30],7510 ng/mL
same,concentration in plasma,Rat [31],16.9 ng/mL
same,concentration in brain,Rat [32],29000 ng/mL
same,concentration in brain,Rat [33],3530 ng/mL
